Key:
Assay in all cases: biochemical
Assay type in all cases: biochemical
382 unique human kinases [1] = target: T1, 382 unique human kinases (Homo sapiens, UniProt Q04759); details: PKCtheta, compound at 10 uM, duplicate values; for remaining activity at 10 µM: read-out: % Enzyme Activity (relative to DMSO controls)
T1 construct: purchased Reaction Biology (HotSpot contract assay)

382 unique human kinases [2] = target: T2, 382 unique human kinases (Homo sapiens, UniProt P00533, T790M); details: kinase EGFR (T790M), compound 10 uM; for remaining activity at 10 µM: read-out: % Enzyme Activity (relative to DMSO controls)
T2 construct: purchased Reaction Biology (HotSpot contract assay)

382 unique human kinases [3] = target: T3, 382 unique human kinases (Homo sapiens, UniProt Q9UPE1); details: MSSK1/STK23, 10 uM; for remaining activity at 10 µM: read-out: % Enzyme Activity (relative to DMSO controls)
T3 construct: purchased Reaction Biology (HotSpot contract assay)

382 unique human kinases [4] = target: T4, 382 unique human kinases (Homo sapiens, UniProt Q16832, T654M); details: DDR2 (T654M), 10 uM; for remaining activity at 10 µM: read-out: % Enzyme Activity (relative to DMSO controls)
T4 construct: purchased Reaction Biology (HotSpot contract assay)
T4 sequence (Q16832 22-855 T654M): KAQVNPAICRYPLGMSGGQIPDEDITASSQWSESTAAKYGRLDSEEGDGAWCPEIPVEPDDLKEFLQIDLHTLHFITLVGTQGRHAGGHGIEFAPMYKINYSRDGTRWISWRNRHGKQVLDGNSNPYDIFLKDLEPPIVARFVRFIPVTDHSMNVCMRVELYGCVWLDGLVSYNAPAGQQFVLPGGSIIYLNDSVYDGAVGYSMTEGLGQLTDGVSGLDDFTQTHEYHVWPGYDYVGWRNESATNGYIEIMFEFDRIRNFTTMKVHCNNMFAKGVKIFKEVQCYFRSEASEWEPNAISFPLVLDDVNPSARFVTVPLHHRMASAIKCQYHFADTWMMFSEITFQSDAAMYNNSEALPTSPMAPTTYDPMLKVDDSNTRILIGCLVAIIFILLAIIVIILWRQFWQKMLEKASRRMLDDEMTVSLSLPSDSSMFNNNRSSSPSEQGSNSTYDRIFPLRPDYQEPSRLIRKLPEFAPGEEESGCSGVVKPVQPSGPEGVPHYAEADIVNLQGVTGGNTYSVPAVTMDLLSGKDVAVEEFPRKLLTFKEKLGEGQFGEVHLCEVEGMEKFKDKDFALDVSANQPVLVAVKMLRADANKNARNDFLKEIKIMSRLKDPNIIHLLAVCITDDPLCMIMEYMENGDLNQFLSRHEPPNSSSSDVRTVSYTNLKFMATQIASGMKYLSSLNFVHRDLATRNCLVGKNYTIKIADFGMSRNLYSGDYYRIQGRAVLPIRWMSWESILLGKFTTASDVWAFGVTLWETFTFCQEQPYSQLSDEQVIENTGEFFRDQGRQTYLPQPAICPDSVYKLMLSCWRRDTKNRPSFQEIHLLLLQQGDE

382 unique human kinases [5] = target: T5, 382 unique human kinases (Homo sapiens, UniProt O75582); details: kinase MSK1/RPS6KA5, compound 10 uM; for remaining activity at 10 µM: read-out: % Enzyme Activity (relative to DMSO controls)
T5 construct: purchased Reaction Biology (HotSpot contract assay)

382 unique human kinases [6] = target: T6, 382 unique human kinases (Homo sapiens, UniProt Q8TD19); details: NEK9, 10 uM; for remaining activity at 10 µM: read-out: % Enzyme Activity (relative to DMSO controls)
T6 construct: purchased Reaction Biology (HotSpot contract assay)
T6 sequence (Q8TD19 1-979): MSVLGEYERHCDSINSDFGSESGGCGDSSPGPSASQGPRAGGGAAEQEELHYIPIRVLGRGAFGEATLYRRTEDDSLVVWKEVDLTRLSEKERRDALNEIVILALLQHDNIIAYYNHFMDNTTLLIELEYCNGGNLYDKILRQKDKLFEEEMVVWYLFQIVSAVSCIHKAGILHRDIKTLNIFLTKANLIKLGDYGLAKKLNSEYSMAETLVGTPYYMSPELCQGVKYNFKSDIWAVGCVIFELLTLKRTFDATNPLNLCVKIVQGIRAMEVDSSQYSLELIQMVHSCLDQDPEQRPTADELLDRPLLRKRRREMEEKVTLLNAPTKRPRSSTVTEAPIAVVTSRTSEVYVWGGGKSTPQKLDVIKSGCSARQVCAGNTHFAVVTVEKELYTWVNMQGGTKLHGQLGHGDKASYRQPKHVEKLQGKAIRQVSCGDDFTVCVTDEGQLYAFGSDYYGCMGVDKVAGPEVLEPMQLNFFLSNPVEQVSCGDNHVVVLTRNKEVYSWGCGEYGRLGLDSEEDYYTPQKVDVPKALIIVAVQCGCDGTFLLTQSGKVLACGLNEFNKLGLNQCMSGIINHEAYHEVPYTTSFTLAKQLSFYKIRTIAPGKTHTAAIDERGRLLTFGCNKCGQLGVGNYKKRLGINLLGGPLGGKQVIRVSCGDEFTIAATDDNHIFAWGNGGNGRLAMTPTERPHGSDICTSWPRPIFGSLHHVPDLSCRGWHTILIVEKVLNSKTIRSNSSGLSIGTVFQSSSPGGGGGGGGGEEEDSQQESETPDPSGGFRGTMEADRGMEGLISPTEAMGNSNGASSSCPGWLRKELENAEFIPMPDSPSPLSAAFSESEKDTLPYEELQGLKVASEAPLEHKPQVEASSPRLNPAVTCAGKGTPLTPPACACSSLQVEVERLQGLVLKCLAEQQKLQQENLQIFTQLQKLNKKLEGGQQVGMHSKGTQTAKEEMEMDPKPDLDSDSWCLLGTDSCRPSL

382 unique human kinases [7] = target: T7, 382 unique human kinases (Homo sapiens, UniProt Q04771, Q207D); details: ALK2 (Q207D), compound at 10 uM, duplicate values; for remaining activity at 10 µM: read-out: % Enzyme Activity (relative to DMSO controls)
T7 construct: purchased Reaction Biology (HotSpot contract assay)
T7 sequence (Q04771 21-509 Q207D): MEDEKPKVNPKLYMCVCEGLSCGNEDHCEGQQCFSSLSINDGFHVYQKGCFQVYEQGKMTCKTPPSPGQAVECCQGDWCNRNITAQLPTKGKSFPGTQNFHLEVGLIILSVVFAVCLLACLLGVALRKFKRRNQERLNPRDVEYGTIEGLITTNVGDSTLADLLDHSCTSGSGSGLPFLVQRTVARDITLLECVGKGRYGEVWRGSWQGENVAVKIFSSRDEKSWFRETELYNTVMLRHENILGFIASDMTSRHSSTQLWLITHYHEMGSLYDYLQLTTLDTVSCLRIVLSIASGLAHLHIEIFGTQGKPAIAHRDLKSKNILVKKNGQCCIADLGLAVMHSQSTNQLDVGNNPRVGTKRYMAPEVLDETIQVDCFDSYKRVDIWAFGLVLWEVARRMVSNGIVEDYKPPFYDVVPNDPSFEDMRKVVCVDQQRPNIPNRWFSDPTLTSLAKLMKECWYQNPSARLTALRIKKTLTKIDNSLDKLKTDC

382 unique human kinases [8] = target: T8, 382 unique human kinases (Homo sapiens, UniProt Q9P1W9); details: PIM2, [ATP] 20 µM, compound 10 uM; for remaining activity at 10 µM: read-out: % Enzyme Activity (relative to DMSO controls)
T8 construct: purchased Reaction Biology (HotSpot contract assay)

382 unique human kinases [9] = target: T9, 382 unique human kinases (Homo sapiens, UniProt Q14680); details: MELK, [ATP] 50 µM, compound 10 uM; for remaining activity at 10 µM: read-out: % Enzyme Activity (relative to DMSO controls)
T9 construct: purchased Reaction Biology (HotSpot contract assay)
T9 sequence (Q14680 whole entry): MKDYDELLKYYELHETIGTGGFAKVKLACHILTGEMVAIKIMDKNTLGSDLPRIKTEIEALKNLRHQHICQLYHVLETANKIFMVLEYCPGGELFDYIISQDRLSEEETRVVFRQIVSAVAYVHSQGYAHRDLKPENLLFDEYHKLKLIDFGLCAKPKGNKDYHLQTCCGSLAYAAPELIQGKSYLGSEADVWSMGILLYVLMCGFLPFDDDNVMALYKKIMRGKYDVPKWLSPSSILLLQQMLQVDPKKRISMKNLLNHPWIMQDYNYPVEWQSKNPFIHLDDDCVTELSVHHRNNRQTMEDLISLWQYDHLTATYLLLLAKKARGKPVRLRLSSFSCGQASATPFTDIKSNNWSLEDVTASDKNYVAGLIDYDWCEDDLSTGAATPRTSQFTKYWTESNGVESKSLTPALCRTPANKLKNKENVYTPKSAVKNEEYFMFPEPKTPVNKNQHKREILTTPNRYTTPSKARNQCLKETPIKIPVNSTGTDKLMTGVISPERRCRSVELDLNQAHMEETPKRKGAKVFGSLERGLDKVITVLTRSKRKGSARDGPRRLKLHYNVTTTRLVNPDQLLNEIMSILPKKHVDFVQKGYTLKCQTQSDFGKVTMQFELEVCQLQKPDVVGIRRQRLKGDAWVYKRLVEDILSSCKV

T8 sequence (Q9P1W9 whole entry): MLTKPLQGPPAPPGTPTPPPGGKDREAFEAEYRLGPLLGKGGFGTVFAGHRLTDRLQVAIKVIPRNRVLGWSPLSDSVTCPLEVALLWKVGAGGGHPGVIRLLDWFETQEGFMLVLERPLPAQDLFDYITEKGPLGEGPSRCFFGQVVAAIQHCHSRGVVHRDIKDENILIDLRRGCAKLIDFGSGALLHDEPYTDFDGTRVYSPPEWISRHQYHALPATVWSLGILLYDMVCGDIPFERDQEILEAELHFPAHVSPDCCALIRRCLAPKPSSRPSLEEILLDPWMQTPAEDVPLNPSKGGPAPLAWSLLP
T3 sequence (Q9UPE1 whole entry): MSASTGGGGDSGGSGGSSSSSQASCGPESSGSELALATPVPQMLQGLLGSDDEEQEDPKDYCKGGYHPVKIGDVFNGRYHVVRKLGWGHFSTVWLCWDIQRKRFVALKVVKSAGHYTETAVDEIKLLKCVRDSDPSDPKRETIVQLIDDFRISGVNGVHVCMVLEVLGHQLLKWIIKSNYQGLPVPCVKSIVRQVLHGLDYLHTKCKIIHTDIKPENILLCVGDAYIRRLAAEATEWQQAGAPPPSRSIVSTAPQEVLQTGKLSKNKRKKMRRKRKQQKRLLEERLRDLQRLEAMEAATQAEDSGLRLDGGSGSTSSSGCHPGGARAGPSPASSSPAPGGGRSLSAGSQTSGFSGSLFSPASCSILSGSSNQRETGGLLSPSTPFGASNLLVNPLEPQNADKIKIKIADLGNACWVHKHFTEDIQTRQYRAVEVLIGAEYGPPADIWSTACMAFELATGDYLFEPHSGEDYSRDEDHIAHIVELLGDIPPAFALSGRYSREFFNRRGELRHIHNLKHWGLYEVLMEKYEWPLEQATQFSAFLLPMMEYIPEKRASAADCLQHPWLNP
T5 sequence (O75582 whole entry): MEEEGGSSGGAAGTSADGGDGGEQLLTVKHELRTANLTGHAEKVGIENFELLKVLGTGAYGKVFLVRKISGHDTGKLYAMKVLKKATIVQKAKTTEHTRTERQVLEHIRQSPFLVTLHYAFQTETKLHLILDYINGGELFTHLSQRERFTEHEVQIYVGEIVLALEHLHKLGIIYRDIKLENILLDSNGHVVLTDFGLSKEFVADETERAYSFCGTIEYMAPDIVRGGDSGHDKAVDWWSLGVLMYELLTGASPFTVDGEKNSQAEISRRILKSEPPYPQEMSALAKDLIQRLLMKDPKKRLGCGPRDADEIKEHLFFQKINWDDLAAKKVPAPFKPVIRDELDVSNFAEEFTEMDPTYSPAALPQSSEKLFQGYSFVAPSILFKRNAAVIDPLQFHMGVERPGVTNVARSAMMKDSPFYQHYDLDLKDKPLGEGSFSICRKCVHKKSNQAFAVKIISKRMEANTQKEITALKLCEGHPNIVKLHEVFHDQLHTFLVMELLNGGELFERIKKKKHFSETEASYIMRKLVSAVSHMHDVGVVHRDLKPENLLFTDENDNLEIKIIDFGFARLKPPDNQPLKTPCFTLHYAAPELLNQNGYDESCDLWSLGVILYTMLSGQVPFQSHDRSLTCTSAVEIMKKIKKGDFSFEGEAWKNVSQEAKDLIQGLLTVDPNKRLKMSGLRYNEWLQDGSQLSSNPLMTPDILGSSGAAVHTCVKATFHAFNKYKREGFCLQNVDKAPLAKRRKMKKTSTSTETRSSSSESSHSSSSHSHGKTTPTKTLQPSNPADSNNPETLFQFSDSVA
T1 sequence (Q04759 whole entry): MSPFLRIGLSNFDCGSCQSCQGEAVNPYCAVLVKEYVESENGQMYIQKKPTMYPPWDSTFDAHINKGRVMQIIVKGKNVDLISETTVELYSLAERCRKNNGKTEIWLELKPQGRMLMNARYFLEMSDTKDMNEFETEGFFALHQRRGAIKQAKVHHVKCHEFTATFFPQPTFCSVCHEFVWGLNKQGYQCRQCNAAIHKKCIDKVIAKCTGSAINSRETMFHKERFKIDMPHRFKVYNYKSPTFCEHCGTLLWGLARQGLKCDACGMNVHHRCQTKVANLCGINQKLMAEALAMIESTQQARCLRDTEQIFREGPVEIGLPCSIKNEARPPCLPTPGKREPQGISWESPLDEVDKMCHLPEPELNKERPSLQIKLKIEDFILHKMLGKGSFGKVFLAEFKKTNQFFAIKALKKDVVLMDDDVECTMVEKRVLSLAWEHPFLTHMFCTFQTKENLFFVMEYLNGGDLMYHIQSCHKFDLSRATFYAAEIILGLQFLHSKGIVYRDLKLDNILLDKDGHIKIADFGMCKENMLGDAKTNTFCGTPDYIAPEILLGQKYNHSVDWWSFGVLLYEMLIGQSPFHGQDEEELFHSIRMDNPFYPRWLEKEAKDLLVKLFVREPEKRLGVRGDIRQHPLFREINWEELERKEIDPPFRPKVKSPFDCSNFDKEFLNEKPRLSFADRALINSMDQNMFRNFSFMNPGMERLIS

| Compound | remaining activity at 10 µM (382 unique human kinases [1]) [%] | remaining activity at 10 µM (382 unique human kinases [2]) [%] | remaining activity at 10 µM (382 unique human kinases [3]) [%] | remaining activity at 10 µM (382 unique human kinases [4]) [%] | remaining activity at 10 µM (382 unique human kinases [5]) [%] | remaining activity at 10 µM (382 unique human kinases [6]) [%] | remaining activity at 10 µM (382 unique human kinases [7]) [%] | remaining activity at 10 µM (382 unique human kinases [8]) [%] | remaining activity at 10 µM (382 unique human kinases [9]) [%] | % Enzyme Activity (relative to DMSO controls) (382 unique human kinases [1]) [%] | % Enzyme Activity (relative to DMSO controls) (382 unique human kinases [2]) [%] | % Enzyme Activity (relative to DMSO controls) (382 unique human kinases [3]) [%] | % Enzyme Activity (relative to DMSO controls) (382 unique human kinases [4]) [%] | % Enzyme Activity (relative to DMSO controls) (382 unique human kinases [5]) [%] | % Enzyme Activity (relative to DMSO controls) (382 unique human kinases [6]) [%] | % Enzyme Activity (relative to DMSO controls) (382 unique human kinases [7]) [%] | % Enzyme Activity (relative to DMSO controls) (382 unique human kinases [8]) [%] | % Enzyme Activity (relative to DMSO controls) (382 unique human kinases [9]) [%] |
| --- | --- | --- | --- | --- | --- | --- | --- | --- | --- | --- | --- | --- | --- | --- | --- | --- | --- | --- |
| CC(C)c1cc(-c2n[nH]c(=O)n2-c2ccc3c(ccn3C)c2)c(O)cc1O [Ganetespib (STA9090)] | 148 | 85.7 | 73.6 | 75 | 81 | 62.5 | 154 |  |  |  |  |  |  |  |  |  |  |  |
| CC(C)c1cc(-c2n[nH]c(=O)n2-c2ccc3c(ccn3C)c2)c(O)cc1O [Ganetespib] |  |  |  |  |  |  |  | 28.8 | 44.5 |  |  |  |  |  |  |  |  |  |
| CCNC(=O)c1noc(-c2cc(C(C)C)c(O)cc2O)c1-c1ccc(CN2CCOCC2)cc1 [Luminespib (AUY-922)] | 102 | 95.4 | 95.8 | 102 | 111 | 73 | 106 |  |  | 101.70 | 95.04 | 95.48 | 100.41 | 109.40 | 72.56 | 101.59 |  |  |
| CCNC(=O)c1noc(-c2cc(C(C)C)c(O)cc2O)c1-c1ccc(CN2CCOCC2)cc1 [Luminespib] |  |  |  |  |  |  |  | 106 | 56.9 |  |  |  |  |  |  |  | 103.60 | 56.86 |

From PMC8550792, “Evolution of kinase polypharmacology across HSP90 drug discovery” (Cell Chemical Biology, 2021)
